Test results taken from patent US8586638B2, “Parakeratosis inhibitor and skin preparation for external use” (priority 2003, dated 2013).
Where “and” joins values, the source holds several entries; their conditions need not be identical. Equal values may be shown once. Where a SMILES comes first, the peptide text is derived from it.

Experiments:
[1] = system: parakeratosis and skin roughness caused by oleic acid on the back of hairless mice; assay: Parakeratosis inhibition effect test: oleic acid applied to the back of hairless mice, visual skin roughness and parakeratosis level; assay type: in vivo, hairless mice (HR-1); design: key to Evaluation Visual (mean of 4 mice), skin roughness: 0.0 = no roughness, 2.0 = control application; 0.25 steps; details: for Evaluation Parakeratosis (mean of 4 mice): range 1.0 to 3.0, higher = severer, control 2.0; for Evaluation Visual (mean of 4 mice), skin roughness: score 0.0 no roughness, 2.0 control; for effect of inhibiting parakeratosis (conclusion from Table 4): fourth embodiment
Method: A 3 weight % water solution (including 30 weight % ethanol) was prepared as the evaluation specimen of the glycine derivatives in accordance with the invention 1. The pH was regulated to the range between 7.0 to 7.5, by using hydrochloric acid and sodium hydroxide. When the solubility was low, the solution was adjusted accordingly.
100 microliters of 10 weight % oleic acid (solvent: ethanol) was applied to the back of hairless mice (HR-1, Hoshino laboratory animals). Thereafter, 100 microliters of sample solution was applied (glycine derivatives in accordance with said invention 1) at each time. This procedure was repeated for 3 days. The day after the application, the skin condition of the backs was observed by using a CCD camera to evaluate the skin roughness (stratified ablation of the skin surface stratum corneum and red spots). The skin condition was evaluated visually, with scoring the skin condition of control application to 2.0 and the skin condition of no roughness to 0.0, in a 0.25 point step in response to the skin condition. At the same time, the skin surface stratum corneum of the back of hairless mice was peeled off by using a tape for staining the nucleus with haematoxylin to observe the degrees of parakeratosis (parakeratosis level) and evaluate in 0.25 step in the range from 1.0 to 3.0. The higher evaluation points indicates the larger number of parakeratotic corneocytes count, i.e., severer parakeratosis.
The samples to be evaluated of the glycine derivatives and the salts thereof as well as the aminosulfuric acid derivatives and the salts thereof in accordance with the invention 2 were prepared mainly 3 weight % solution (including 30 weight % ethanol, excluding Hydantoic acid and ACES which include 20 weight % ethanol). pH was regulated by using hydrochloric acid or sodium hydroxide to be 7.0 to 7.5. When the solubility was low, then the solution was prepared accordingly.
100 microliters of 10 weight % oleic acid (solvent: ethanol) was applied to the back of Hairless mice (HR-1, Hoshino laboratory animals) Thereafter, 100 microliters of sample solution (glycine derivatives in accordance with the invention 2) was applied thereon at each time. This procedure was repeated for 3 days. The day after the application, the skin condition of the backs was observed by using a CCD camera to evaluate the skin roughness (stratified ablation of the skin surface stratum corneum and red spots). The skin condition was evaluated visually, with scoring the skin condition of control application to 2.0 and the skin condition of no roughness to 0.0, in a 0.25 point step in response to the skin condition. At the same time, the skin surface stratum corneum of the back of hairless mice was peeled off by using a tape for staining the nucleus with haematoxylin to observe the degrees of parakeratosis and evaluate in 0.25 step in the range from 1.0 to 3.0. The higher evaluation points indicates the larger number of parakeratotic corneocytes count, i.e., severer parakeratosis.

[2] = system: pores on the cheek of healthy male subjects; assay: Effect of shrinking human pores: replica evaluation of cheek pores; assay type: in vivo; details: for Replica Evaluation (mean of n = 5), difference of pore size score before/after application: twice a day for a month, cheek; for effect of pore-shrinking (conclusion from Table 5): fifth embodiment
Method: An experiment of application of sample twice a day for a month on the cheek of healthy male subjects, was conducted with each group consisting of 5 individuals. 3 weight % solution of the glycine derivatives in accordance with the invention 1 (including 15 weight % of ethanol) was prepared. pH was regulated to the range between 7.0 and 7.5, by using hydrochloric acid and/or sodium hydroxide. Control was 15 weight % ethanol solution. Said 3 weight % solution was applied to one side and said control solution was applied to the other side.
Replicas were prepared prior to and after the application to observe the change of form of pores in the same spot under a three-dimensional laser scanning microscope. The size of pores was evaluated visually 13 steps from 1 to 13 (larger number indicates larger pore size), and the difference between the resulted evaluations before/after the application experiment was then calculated to study the effectiveness of each specimen.
An experiment of application of sample twice a day for a month on the cheek of healthy male subjects, was conducted with each group consisting of 5 individuals. 3 weight % solution of the glycine derivatives and the salts thereof as well as the aminosulfuric acid derivatives and the salts thereof in accordance with the invention 2 (including 15 weight % of ethanol), 2 weight % solution of ACES (including 15 weight % of ethanol), 3 weight % solution of CAPS (including 15 weight % of ethanol), and 3 weight % solution of CAPSO (including 15 weight % of ethanol) were prepared. pH was regulated to the range between 7.0 and 7.5, by using hydrochloric acid and/or sodium hydroxide. 15 weight % ethanol solution was used as control. Said sample solutions was applied to one side, and said control solution was applied to the other side.

[3] = system: skin surface stratum corneum of human cheek; assay: Parakeratosis inhibition effect on human skin by N-ethylglycine: number of nuclear cells of skin surface stratum corneum; assay type: in vivo; details: 3 weight % N-ethylglycine side against control side (15 weight % ethanol); area 12 mm by 34 mm; FIG. 2
Excerpt: (§1) In the pore-shrinking effect test on human skin as described in the embodiment 5, the application of N-ethylglycine was further studied about the amelioration of parakeratosis by measuring the number of nuclear cell of skin surface stratum corneum, obtained by means of a tape. Replica was used to actually measure the pore size within the area of 3.34 mm by 3.34 mm to evaluate the pore-shrinking effect.
(§2) More specifically, the skin surface stratum corneum was sampled by means of carton tape (Nichiban, Co. Ltd.) only after the application of sample, Hoechst 33342 solution dissolved in PBS to 0.1 mg/ml was then added, and after the sample was placed in a dark place for 20 minutes, the number of nuclear cells within the area of 12 mm by 34 mm by using a fluorescent microscope. For the replicas made by using silflo (Flexico, Co. Ltd.) was measured before and after the application to capture three-dimensional surface form within the same area (3.34 mm by 3.34 mm) with a confocal microscope (HD100D, Lasertech) to measure and compare the size of pores (surface area value).

[4] = system: pores on the cheek of healthy male subjects; assay: Pore-shrinking effect on human skin by N-ethylglycine: pore surface area by replica analysis; assay type: in vivo; details: 3 weight % N-ethylglycine side; control 92%; area 3.34 mm by 3.34 mm; FIG. 3
Excerpt: as §1, §2

[5] = system: skin roughness caused by oleic acid on the back of hairless mice; assay: Inhibitory effect on skin roughness by the application of oleic acid (TEWL value); assay type: in vivo, hairless mice (HR-1); design: ΔTEWL: unit not given here; details: for decrease of delta-TEWL value as compared to the control solution (conclusion from Table 6): hairless mice, oleic acid, seventh embodiment; for ΔTEWL: sample 3 weight %, after 10 weight % oleic acid, 3 days, four mice per group, larger = severer roughness, control 12.0
Method: To study the inhibitory effect on the skin roughness by the application of oleic acid by the glycine derivatives and the salts thereof as well as the aminosulfuric acid derivatives and the salts thereof in accordance with the invention 2, the […] (TEWL value) before and after the application was measured to compare the difference therebetween with the value of control (control solution) in order to determine the effect. The preparation of samples and the application procedure were in accordance with the embodiment 4. The TEWL value was measured by means of TEWA meter TM210 (Courage+Khazaka Inc.).
100 microliters of 10 weight % oleic acid (solvent: ethanol) was applied to the back of hairless mice (HR-1, four in each group). Thereafter, 100 microliters of sample solutions (glycine derivatives and the salts thereof as well as the aminosulfuric acid derivatives and the salts thereof) in accordance with the invention 2 were applied at each time. This procedure was repeated for 3 days. The day after the application, TEWL value of the back of mice was measured and the values were averaged. The larger delta-TEWL value indicates severer aggravation of skin roughness.

[6] = system: pores (conical portion) on the cheek of healthy adult males; assay: Effect of shrinking human pores by glycylglycine: conical portion surface area from cheek replica; assay type: in vivo
Method: Since we obtained a good result from glycylglycine in the embodiment 2, we conducted an application experiment of glycylglycine three times a day (0.1 milliliter each) on the cheek of 21 healthy adult males (age of 20s to 50s, average 40.4 years old) for a period of one month. 1.6% (w/w) glycylglycine solution (pH regulated to 7.0) including 15% (w/w) ethanol, and 15% (w/w) ethanol solution (control) was prepared, for applying the same to each one side cheek.
By obtaining a cheek replica (Silflo) before and after the continuous application, the surface area of conical portion was measured by a three-dimensional analysis system (Okuri et al., Japan Society of Dermatology Annual Meeting Program/Abstract, 2004, 104, pp. 601) by means of wide view confocal microscope HD100D (lasertech).
For the surface area recognized as pore portion within the replica measuring area of 3.34 mm by 3.34 mm, the conical portion surface area (mm2) and the ratio thereof before and after the application is shown in Table 3. From Table 3, The ratio among the panel that the surface area of glycylglycine applied side was decreased more than 10% when compared to the control application side (glycylglycine side was shrunk), the panel that the variation was within 10% and no noticeable change observed (no change), and the panel that the control application side was decreased more than 10% (other side was shrunk) was 13:5:3.
When averaging the surface area ratio before and after the application, the side of control solvent solution was 102%, while the side of glycylglycine was reduced to 89%. By evaluating this surface area ratio with t-analysis, we obtained p=0.019, indicating significant shrinkage of pore area in the glycylglycine applied side (see FIG. 1).

[7] = system: pores (conical portion) on the cheek of healthy adult males; assay: as above; assay type: in vivo; details: glycylglycine applied side compared with ethanol applied side
[8] = Table 4, sample 3 weight % in aqueous 30 weight % ethanol (hydantoic acid: 20 weight % ethanol)
[9] = Table 5, 3.0 weight % solution (15 weight % ethanol), control 0.3
[10] = sample 3 weight % in aqueous 30 weight % ethanol, after 10 weight % oleic acid, 3 days

| Structure (SMILES) | Evaluation Parakeratosis (mean of 4 mice) [1, 8] | Evaluation Visual (mean of 4 mice), skin roughness [1, 8] | effect of inhibiting parakeratosis (conclusion from Table 4) ([1]; hairless mice, oleic acid) | Replica Evaluation (mean of n = 5), difference of pore size score before/after application [2, 9] | effect of pore-shrinking (conclusion from Table 5) ([2]; human cheek) | number of nuclear cells of skin surface stratum corneum [3] | surface area of pores, average as compared to pre-application status [4] [%] | decrease of delta-TEWL value as compared to the control solution (conclusion from Table 6) [5] | ΔTEWL [5] | effect of inhibiting parakeratosis (conclusion from Table 1) ([1]; hairless mice, oleic acid, first embodiment) | Evaluation Parakeratosis (mean of 4 mice) [1, 10] | Evaluation Visual (mean of 4 mice), skin roughness [1, 10] | Replica Evaluation (mean of n = 5), difference of pore size score before/after application ([2]; 3 weight % solution (15 weight % ethanol), 13 steps, larger = larger pore, control 0.2) | pore-shrinking effect (conclusion from Table 2) ([2]; human cheek, second embodiment) | average surface area ratio before and after the application ([6]; glycylglycine side, control solvent side 102%, p=0.019) [%] | conical portion surface area after application ([6]; individual panels #1-21, 1.6% (w/w) glycylglycine, 15% ethanol, three times a day, one month, area 3.34 mm by 3.34 mm) | conical portion surface area ratio after/before ([6]; individual panels #1-21, 1.6% (w/w) glycylglycine, three times a day, one month) | conical portion surface area ratio after/before, mean ([6]; mean of 21 panels (S.D. 0.2597), 1.6% (w/w) glycylglycine, control mean 1.017) | photographic evaluation of conspicuous pores [7] |
| --- | --- | --- | --- | --- | --- | --- | --- | --- | --- | --- | --- | --- | --- | --- | --- | --- | --- | --- | --- |
| CCNCC(=O)O [N-ethylglycine] | 1.2 | 1.3 | have the effect of inhibiting parakeratosis | −1.4 | demonstrated the effect of pore-shrinking | fewer number of nuclear cells | 73 | significant decrease of delta-TEWL value | 9.0 | – | – | – | – | – | – | – | – | – | – |
| O=C(O)CNc1ccccc1 [N-phenylglycine] | 1.2 | 1.3 | have the effect of inhibiting parakeratosis | −1.0 | demonstrated the effect of pore-shrinking | – | – | significant decrease of delta-TEWL value | 7.9 | – | – | – | – | – | – | – | – | – | – |
| NCC(=O)NCC(=O)O [glycylglycine] (H-Gly-Gly-OH) | – | – | – | – | – | – | – | – | – | have the effect of inhibiting parakeratosis | 1.2 | 1.2 | −1.0 | pore-shrinking effect was observed | 89 | 1.2057 mm^2 and 1.3727 mm^2 and 1.5166 mm^2 and 1.4427 mm^2 and 1.2368 mm^2 and 0.6078 mm^2 and 0.3675 mm^2 and 0.4880 mm^2 and 1.1250 mm^2 and 0.5977 mm^2 and 1.3739 mm^2 and 0.2691 mm^2 and 1.2348 mm^2 and 1.2053 mm^2 and 1.0498 mm^2 and 0.3669 mm^2 and 0.6778 mm^2 and 1.0541 mm^2 and 0.5801 mm^2 and 0.6728 mm^2 and 1.3879 mm^2 | 0.8948 and 0.9818 and 1.0512 and 1.0627 and 1.0535 and 0.7494 and 0.5279 and 0.7405 and 0.7878 and 0.6357 and 0.8594 and 0.4111 and 1.3932 and 0.8940 and 1.2831 and 0.5594 and 0.7676 and 0.8700 and 1.2931 and 0.7612 and 1.0131 | 0.8853 | ameliorated |
| NC(=O)NCC(=O)O [hydantoic acid] | 1.3 | 1.4 | have the effect of inhibiting parakeratosis | −0.8 | demonstrated the effect of pore-shrinking | – | – | significant decrease of delta-TEWL value | 8.0 | – | – | – | – | – | – | – | – | – | – |
